Results as given in patent US20190327974A1, “SYNERGISTS FOR IMPROVED PESTICIDES” (priority 2017, published 2019).
pKi: −log10 of the molar value.

How the values were obtained:
[1] = tested on: Ostrinia nubilalis (European corn borer); assay: CPE combined with boronic acid derivatives on corn leaves; type: in vivo; conditions: for toxicity of the boronic acid derivative alone (in words): some larvae death with 3.10 and 3.7 at 6 DAT; for efficacy on addition of the compound compared with CPE used alone (in words): 1 DAT and 3 DAT at the dose of 15.6 g a.i./ha
Description: (§1) Treatments were performed by spraying a volume of mixture corresponding to 200 l/ha. 4 boxes/condition.
(§2) Drying 1 h at 20° C.; Deposit of three leaf fragments per box on water agar (4 box/condition); Infection of each leaf fragment with 4 Ostrinia nubilalis (12 larvae/box); Incubation 18° C./28° C. […] The percentage of mortality was calculated for each assessment times. Statistical analysis of the data was performed with XLSTAT® software (ANOVAs followed by Newman-Keuls tests with a threshold of 5%, see Table below).

[2] = tested on: Ostrinia nubilalis (European corn borer); assay: Efficacy of chlorpyrifos-ethyl with boronic acids on European corn borer on corn leaves; type: in vivo
Description: as §1, §2

[3] = target: bacterial AmpC β-lactamase (Escherichia coli, UniProt P00811); assay: AmpC β-lactamase selectivity; type: biochemical
Description: To characterize the selectivity of boronic acids 1 to 5, they were assayed against AChE, the target of OP and carbamate insecticides (Table 1) as well as trypsin and bacterial AmpC β-lactamase. […] The toxicity of the hits against two human cell lines was further assessed.
To characterize the selectivity of boronic acids 1 to 5, they were assayed against the target of OP insecticides, AChE, as well as trypsin and bacterial AmpC β-lactamase (Table 1). AChE and αE7 are homologous, sharing the α/β-hydrolase fold and the same catalytic machinery, however the topology of their binding pockets is dissimilar (Jackson, C. J. et al. Structure and function of an insect α-carboxylesterase (αEsterase7) associated with insecticide resistance. Proc. Natl. Acad. Sci. U.S.A. 110, 10177-82 (2013) and Correy, G. J. et al. Mapping the Accessible Conformational Landscape of an Insect Carboxylesterase Using Conformational Ensemble Analysis and Kinetic Crystallography. Structure 24, 1-11 (2016).). Both trypsin and AmpC β-lactamase contain an activated serine nucleophile and oxyanion hole, however trypsin contains a serine-histidine-aspartic acid (Hedstrom, L. Serine protease mechanism and specificity. Chem. Rev. 102, 4501-4523 (2002).) while AmpC β-lactamase contains a serine-tyrosine-lysine catalytic triad (Dubus, A., et al. The roles of residues Tyr150, Glu272, and His314 in class C β-lactamases. Proteins Struct. Funct. Genet. 25, 473-485 (1996).).

[4] = tested on: Lucilia cuprina larvae, laboratory susceptible strain (LS); assay: Blowfly larvae pupation bioassay, laboratory strain, diazinon; type: in vivo
Description: Inhibitor efficacy was determined by treating larvae with diazinon over a range of concentrations, in the presence or absence of the compounds at constant concentrations, and comparing pupation rates.
Two strains of L. cuprina were used: 1) a laboratory reference drug-susceptible strain, LS, derived from collections in the Australian Capital Territory over 40 years ago, with no history of exposure to insecticides; and 2) a field-collected strain, Tara, resistant to diazinon and diflubenzuron (Levot, G. W. & Sales, N. New high level resistance to diflubenzuron detected in the Australian sheep blowfly, Lucilia cuprina (Wiedemann) (Diptera: Calliphoridae). Gen. Appl. Entomol. 31, 43-46 (2002)). The LcαE7 gene was sequenced in each of the strains. Briefly, genomic DNA was prepared from 20 adult female flies from each strain using the DNeasy Blood and Tissue kit (Qiagen). PCR was performed with primers specific to the LcαE7 gene, and the product was cloned into a pGEM-T EASY vector (Promega). Eight clones of the susceptible strain and 10 clones of the resistant strain were sequenced using M13 forward and reverse primers.
Each experiment utilized 50 larvae at each diazinon/malathion concentration. Experiments were replicated three times for diazinon, and twice for malathion. The insecticidal effects were defined by measuring the pupation rate. […]

[5] = tested on: panel of 26 human serine or threonine proteases; assay: Protease selectivity panel, summary over the panel; type: biochemical; conditions: 100 μM compound
Description: Test compounds were dissolved in 100% DMSO to make 10 mM stock. Final compound concentration in assay is […]. Compounds were tested in duplicate wells at single concentration and the final concentration of DMSO in all assays was kept at 1%. Five reference compounds, AEBSF, Carfilzomib, Granzyme B Inhibitor II, Dec-RVKR-CMK, and Teneligliptin hydrobromide, were tested in an identical manner with 8 concentration points at 5× dilutions.

[6] = 1 DAT, CPE 2.5 g a.i./ha, boronic acid, where present, 0.2 mg/ml
[7] = 1 DAT, CPE 6.24 g a.i./ha, boronic acid, where present, 0.2 mg/ml
[8] = 1 DAT, CPE 15.6 g a.i./ha, boronic acid, where present, 0.2 mg/ml
[9] = 1 DAT, CPE 39 g a.i./ha, boronic acid, where present, 0.2 mg/ml
[10] = 3 DAT, CPE 2.5 g a.i./ha, boronic acid, where present, 0.2 mg/ml
[11] = 3 DAT, CPE 6.24 g a.i./ha, boronic acid, where present, 0.2 mg/ml
[12] = 3 DAT, CPE 15.6 g a.i./ha, boronic acid, where present, 0.2 mg/ml
[13] = 3 DAT, CPE 39 g a.i./ha, boronic acid, where present, 0.2 mg/ml
[14] = 6 DAT, CPE 2.5 g a.i./ha, boronic acid, where present, 0.2 mg/ml
[15] = 6 DAT, CPE 6.24 g a.i./ha, boronic acid, where present, 0.2 mg/ml
[16] = 6 DAT, CPE 15.6 g a.i./ha, boronic acid, where present, 0.2 mg/ml
[17] = 6 DAT, CPE 39 g a.i./ha, boronic acid, where present, 0.2 mg/ml
[18] = 1 DAT, boronic acid alone 0.2 mg/ml, 12 larvae/box
[19] = 3 DAT, boronic acid alone 0.2 mg/ml, 12 larvae/box
[20] = 6 DAT, boronic acid alone 0.2 mg/ml, 12 larvae/box
[21] = 1 DAT, boronic acid alone 0.2 mg/ml
[22] = 3 DAT, boronic acid alone 0.2 mg/ml
[23] = 6 DAT, boronic acid alone 0.2 mg/ml

bacterial AmpC β-lactamase, sequence (P00811 20-377): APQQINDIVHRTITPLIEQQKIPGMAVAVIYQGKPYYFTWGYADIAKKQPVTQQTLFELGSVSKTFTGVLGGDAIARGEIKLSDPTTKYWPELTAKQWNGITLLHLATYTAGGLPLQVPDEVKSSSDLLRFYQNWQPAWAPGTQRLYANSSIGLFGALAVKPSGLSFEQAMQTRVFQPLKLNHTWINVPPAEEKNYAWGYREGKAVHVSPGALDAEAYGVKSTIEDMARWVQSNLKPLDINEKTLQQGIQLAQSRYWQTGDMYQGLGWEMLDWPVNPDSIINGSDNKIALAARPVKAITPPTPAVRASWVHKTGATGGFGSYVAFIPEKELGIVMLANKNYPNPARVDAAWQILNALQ

SMILES: CCOP(=S)(OCC)Oc1nc(Cl)c(Cl)cc1Cl [CPE, Chlorpyrifos-ethyl]
- Evaluation of Larvae number, Mean [1, 6]: 12
- Percentage of efficacy [1, 6]: 0%
- Evaluation of Larvae number, Mean [1, 7]: 10.7
- Percentage of efficacy [1, 7]: 11%
- Evaluation of Larvae number, Mean [1, 8]: 7.3
- Percentage of efficacy [1, 8]: 40%
- Evaluation of Larvae number, Mean [1, 9]: 3.3
- Percentage of efficacy [1, 9]: 72%
- Evaluation of Larvae number, Mean [1, 10]: 12
- Percentage of efficacy [1, 10]: 0%
- Evaluation of Larvae number, Mean [1, 11]: 9.7
- Percentage of efficacy [1, 11]: 16%
- Evaluation of Larvae number, Mean [1, 12]: 7
- Percentage of efficacy [1, 12]: 39%
- Evaluation of Larvae number, Mean [1, 13]: 2
- Percentage of efficacy [1, 13]: 83%
- Evaluation of Larvae number, Mean [1, 14]: 8
- Percentage of efficacy [1, 14]: 26%
- Evaluation of Larvae number, Mean [1, 15]: 4
- Percentage of efficacy [1, 15]: 63%
- Evaluation of Larvae number, Mean [1, 16]: 3.5
- Percentage of efficacy [1, 16]: 67%
- Evaluation of Larvae number, Mean [1, 17]: 1.3
- Percentage of efficacy [1, 17]: 88%
- Percentage of efficacy ([2]; CPE 2.5, 1 DAT, boronic acid where present 0.2 mg/ml): 0%
- Percentage of efficacy ([2]; CPE 2.5, 3 DAT, boronic acid where present 0.2 mg/ml): 0%
- Percentage of efficacy ([2]; CPE 2.5, 6 DAT, boronic acid where present 0.2 mg/ml): 26%
- Larvae number, mean ([2]; CPE 2.5 g a.i./ha, 1 DAT, boronic acid where present 0.2 mg/ml): 12
- Larvae number, mean ([2]; CPE 2.5 g a.i./ha, 3 DAT, boronic acid where present 0.2 mg/ml): 12
- Larvae number, mean ([2]; CPE 2.5 g a.i./ha, 6 DAT, boronic acid where present 0.2 mg/ml): 8
- Percentage of efficacy ([2]; CPE 6.24, 1 DAT, boronic acid where present 0.2 mg/ml): 11%
- Percentage of efficacy ([2]; CPE 6.24, 3 DAT, boronic acid where present 0.2 mg/ml): 16%
- Percentage of efficacy ([2]; CPE 6.24, 6 DAT, boronic acid where present 0.2 mg/ml): 63%
- Larvae number, mean ([2]; CPE 6.24 g a.i./ha, 1 DAT, boronic acid where present 0.2 mg/ml): 10.7
- Larvae number, mean ([2]; CPE 6.24 g a.i./ha, 3 DAT, boronic acid where present 0.2 mg/ml): 9.7
- Larvae number, mean ([2]; CPE 6.24 g a.i./ha, 6 DAT, boronic acid where present 0.2 mg/ml): 4
- Percentage of efficacy ([2]; CPE 15.6, 1 DAT, boronic acid where present 0.2 mg/ml): 40%
- Percentage of efficacy ([2]; CPE 15.6, 3 DAT, boronic acid where present 0.2 mg/ml): 39%
- Percentage of efficacy ([2]; CPE 15.6, 6 DAT, boronic acid where present 0.2 mg/ml): 67%
- Larvae number, mean ([2]; CPE 15.6 g a.i./ha, 1 DAT, boronic acid where present 0.2 mg/ml): 7.3
- Larvae number, mean ([2]; CPE 15.6 g a.i./ha, 3 DAT, boronic acid where present 0.2 mg/ml): 7
- Larvae number, mean ([2]; CPE 15.6 g a.i./ha, 6 DAT, boronic acid where present 0.2 mg/ml): 3.5
- Percentage of efficacy ([2]; CPE 39, 1 DAT, boronic acid where present 0.2 mg/ml): 72%
- Percentage of efficacy ([2]; CPE 39, 3 DAT, boronic acid where present 0.2 mg/ml): 83%
- Percentage of efficacy ([2]; CPE 39, 6 DAT, boronic acid where present 0.2 mg/ml): 88%
- Larvae number, mean ([2]; CPE 39 g a.i./ha, 1 DAT, boronic acid where present 0.2 mg/ml): 3.3
- Larvae number, mean ([2]; CPE 39 g a.i./ha, 3 DAT, boronic acid where present 0.2 mg/ml): 2
- Larvae number, mean ([2]; CPE 39 g a.i./ha, 6 DAT, boronic acid where present 0.2 mg/ml): 1.3

SMILES: Cc1ccc(B(O)O)cc1Br [Compound 1]
- pKi [3]: 6.67

SMILES: Cc1ccc(B(O)O)cc1OCc1ccccc1 [Compound 2]
- pKi [3]: 6.42

SMILES: OB(O)c1cc(Br)cc(N2CCOCC2)c1 [Compound 3.1]
- Evaluation of Larvae number, Mean [1, 18]: 12
- Evaluation of Larvae number, Mean [1, 19]: 12
- Evaluation of Larvae number, Mean [1, 20]: 8.3
- Larvae number, mean ([2]; boronic acid alone 0.2 mg/ml, 1 DAT, 12 larvae/box): 12
- Larvae number, mean ([2]; boronic acid alone 0.2 mg/ml, 3 DAT, 12 larvae/box): 12
- Larvae number, mean ([2]; boronic acid alone 0.2 mg/ml, 6 DAT, 12 larvae/box): 8.3
- reduction of diazinon EC50 compared to diazinon only control [4]: 5.7 fold

SMILES: CC(C)Oc1cc(Br)cc(B(O)O)c1 [Compound 3.7, 3-Bromo-5-isopropoxyphenylboronic acid]
- toxicity of the boronic acid derivative alone (in words) ([1]; 0.2 mg/ml): Absence of significant toxicity
- efficacy on addition of the compound compared with CPE used alone (in words) [1]: increased significantly the efficacy
- Percentage of efficacy [1, 21]: 3%
- Evaluation of Larvae number, Mean [1, 18]: 11.7
- Percentage of efficacy [1, 22]: 4%
- Evaluation of Larvae number, Mean [1, 19]: 11
- Percentage of efficacy [1, 23]: 26%
- Evaluation of Larvae number, Mean [1, 20]: 8

SMILES: OB(O)c1cc(Br)cc(Oc2ccccc2)c1 [Compound 3.10, 3-Bromo-5-phenoxyfenylboronic acid]
- toxicity of the boronic acid derivative alone (in words) ([1]; 0.2 mg/ml): Absence of significant toxicity
- efficacy on addition of the compound compared with CPE used alone (in words) [1]: increased significantly the efficacy
- Percentage of efficacy [1, 21]: 0%
- Percentage of efficacy [1, 22]: 0%
- Percentage of efficacy [1, 23]: 22%

SMILES: OB(O)c1cc(Br)cc(N2CCCC2)c1 [Compound 3]
- pKi [3]: 7.22
- inhibition across the panel of 26 human proteases (in words) [5]: only 3 of the 26 proteases were inhibited by more than 50%

SMILES: OB(O)c1ccc2ccccc2c1 [Compound 4]
- pKi [3]: 6.98
